Results taken from PubChem BioAssay (NCI).
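Step 1: Grow cells in 96-well plates. Step 2: Expose to compound for 48 hours at 5 concentrations. Step 3: Interpolate endpoints linearly; if unreached, use highest concentration. GI50 is the concentration that inhibits growth by half. TGI: total growth inhibition.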

Columns and labels:
Assay in all cases: inhibition of tumour cell growth, NCI panel, 48 h
NCI-H460 lung = tested on: NCI-H460 lung
HOP-62 NSCLC = tested on: HOP-62 NSCLC
OVCAR-8 ovarian = tested on: OVCAR-8 ovarian
HCT-116 colon = tested on: HCT-116 colon
HS 578T breast = tested on: HS 578T breast
OVCAR-3 ovarian = tested on: OVCAR-3 ovarian
M14 melanoma = tested on: M14 melanoma
A549 NSCLC = tested on: A549 NSCLC
HCT-15 colon = tested on: HCT-15 colon
LOX IMVI melanoma = tested on: LOX IMVI melanoma
DU-145 prostate = tested on: DU-145 prostate
HT29 colon = tested on: HT29 colon
HOP-92 NSCLC = tested on: HOP-92 NSCLC
K-562 leukemia = tested on: K-562 leukemia
SW-620 colon = tested on: SW-620 colon
UO-31 renal = tested on: UO-31 renal
UACC-62 melanoma = tested on: UACC-62 melanoma
PC-3 prostate = tested on: PC-3 prostate
IGROV1 ovarian = tested on: IGROV1 ovarian
HL-60(TB) leukemia = tested on: HL-60(TB) leukemia
MDA-MB-435 = tested on: MDA-MB-435
SK-MEL-2 melanoma = tested on: SK-MEL-2 melanoma
SK-MEL-28 melanoma = tested on: SK-MEL-28 melanoma
SF-539 CNS = tested on: SF-539 CNS
786-0 renal = tested on: 786-0 renal
BT-549 breast = tested on: BT-549 breast
SNB-19 CNS = tested on: SNB-19 CNS
MALME-3M melanoma = tested on: MALME-3M melanoma
A498 renal = tested on: A498 renal
MOLT-4 leukemia = tested on: MOLT-4 leukemia
CAKI-1 renal = tested on: CAKI-1 renal
SF-268 CNS = tested on: SF-268 CNS
KM12 colon = tested on: KM12 colon
ACHN renal = tested on: ACHN renal
COLO 205 colon = tested on: COLO 205 colon
SNB-75 CNS = tested on: SNB-75 CNS
T-47D breast = tested on: T-47D breast
EKVX NSCLC = tested on: EKVX NSCLC
RPMI-8226 leukemia = tested on: RPMI-8226 leukemia
OVCAR-4 ovarian = tested on: OVCAR-4 ovarian
NCI-H226 lung = tested on: NCI-H226 lung
SN12C renal = tested on: SN12C renal
U251 CNS = tested on: U251 CNS
RXF 393 renal = tested on: RXF 393 renal
SF-295 CNS = tested on: SF-295 CNS
SK-OV-3 ovarian = tested on: SK-OV-3 ovarian
NCI-H23 lung = tested on: NCI-H23 lung
UACC-257 melanoma = tested on: UACC-257 melanoma
NCI-H522 lung = tested on: NCI-H522 lung
OVCAR-5 ovarian = tested on: OVCAR-5 ovarian
HCC-2998 colon = tested on: HCC-2998 colon
TK-10 renal = tested on: TK-10 renal
MCF7 breast = tested on: MCF7 breast
MDA-MB-231 breast = tested on: MDA-MB-231 breast
SK-MEL-5 melanoma = tested on: SK-MEL-5 melanoma
NCI/ADR-RES ovarian = tested on: NCI/ADR-RES ovarian

C=C(C)[C@@H]1CC[C@]2(C(=O)OCCOCCOCC[P+](c3ccccc3)(c3ccccc3)c3ccccc3)CC[C@]3(C)[C@H](CC[C@@H]4[C@@]5(C)CC[C@H](C)C(C)(C)[C@@H]5CC[C@]43C)[C@@H]12
GI50 (NCI-H460 lung): 0.0383 µM | TGI (NCI-H460 lung): > 100 µM | GI50 (HOP-62 NSCLC): 0.0384 µM | TGI (HOP-62 NSCLC): 0.614 µM | GI50 (OVCAR-8 ovarian): 0.0431 µM | TGI (OVCAR-8 ovarian): > 100 µM

C=C(CN1CCN(c2ccc(F)c(Cl)c2)CC1)c1ccc(C(=O)Nc2ccccc2N)cc1
GI50 (HCT-116 colon): 3.08 µM | TGI (HCT-116 colon): 10.3 µM | GI50 (HS 578T breast): 7.39 µM | TGI (HS 578T breast): > 100 µM | GI50 (OVCAR-3 ovarian): 6.18 µM | TGI (OVCAR-3 ovarian): 58.9 µM | GI50 (M14 melanoma): 2.65 µM | TGI (M14 melanoma): 11.6 µM | GI50 (A549 NSCLC): 3.81 µM | TGI (A549 NSCLC): 24.5 µM | GI50 (HCT-15 colon): 5.38 µM | TGI (HCT-15 colon): > 100 µM | GI50 (LOX IMVI melanoma): 3.47 µM | TGI (LOX IMVI melanoma): 12.5 µM | GI50 (DU-145 prostate): 8.76 µM | TGI (DU-145 prostate): 40.4 µM | GI50 (HT29 colon): 2.32 µM | TGI (HT29 colon): > 100 µM | GI50 (HOP-92 NSCLC): 2.15 µM | TGI (HOP-92 NSCLC): 11.6 µM | GI50 (NCI-H460 lung): 5.08 µM | TGI (NCI-H460 lung): > 100 µM | GI50 (K-562 leukemia): 2.41 µM | TGI (K-562 leukemia): 14.2 µM | GI50 (SW-620 colon): 5.37 µM | TGI (SW-620 colon): > 100 µM | GI50 (UO-31 renal): 2.28 µM | TGI (UO-31 renal): 12.1 µM | GI50 (UACC-62 melanoma): 5.24 µM | TGI (UACC-62 melanoma): 54.3 µM | GI50 (PC-3 prostate): 2.34 µM | TGI (PC-3 prostate): 9.23 µM | GI50 (IGROV1 ovarian): 1.88 µM | TGI (IGROV1 ovarian): 7.86 µM | GI50 (HL-60(TB) leukemia): 1.64 µM | TGI (HL-60(TB) leukemia): 4.31 µM | GI50 (MDA-MB-435): 3.2 µM | TGI (MDA-MB-435): 12.6 µM | GI50 (SK-MEL-2 melanoma): 6.12 µM | TGI (SK-MEL-2 melanoma): 64 µM | GI50 (SK-MEL-28 melanoma): 0.529 µM | TGI (SK-MEL-28 melanoma): > 100 µM | GI50 (SF-539 CNS): 5.79 µM | TGI (SF-539 CNS): 26.2 µM | GI50 (786-0 renal): 2.88 µM | TGI (786-0 renal): 13.4 µM | GI50 (BT-549 breast): 3.51 µM | TGI (BT-549 breast): 26.5 µM | GI50 (HOP-62 NSCLC): 3.09 µM | TGI (HOP-62 NSCLC): 16.4 µM | GI50 (SNB-19 CNS): > 100 µM | TGI (SNB-19 CNS): > 100 µM | GI50 (MALME-3M melanoma): 4.35 µM | TGI (MALME-3M melanoma): 37.2 µM | GI50 (A498 renal): 9.67 µM | TGI (A498 renal): 44.1 µM | GI50 (MOLT-4 leukemia): 0.764 µM | TGI (MOLT-4 leukemia): 4 µM | GI50 (CAKI-1 renal): 4.12 µM | TGI (CAKI-1 renal): 77.8 µM | GI50 (OVCAR-8 ovarian): 5.42 µM | TGI (OVCAR-8 ovarian): > 100 µM | GI50 (SF-268 CNS): 4.35 µM | TGI (SF-268 CNS): > 100 µM | GI50 (KM12 colon): 4.07 µM | TGI (KM12 colon): > 100 µM | GI50 (ACHN renal): 6.43 µM | TGI (ACHN renal): > 100 µM | GI50 (COLO 205 colon): > 100 µM | TGI (COLO 205 colon): > 100 µM | GI50 (SNB-75 CNS): > 100 µM | TGI (SNB-75 CNS): > 100 µM | GI50 (T-47D breast): > 100 µM | TGI (T-47D breast): > 100 µM | GI50 (EKVX NSCLC): 15.8 µM | TGI (EKVX NSCLC): > 100 µM | GI50 (RPMI-8226 leukemia): 1.46 µM | TGI (RPMI-8226 leukemia): 5.1 µM | GI50 (OVCAR-4 ovarian): > 100 µM | TGI (OVCAR-4 ovarian): > 100 µM | GI50 (NCI-H226 lung): 9.12 µM | TGI (NCI-H226 lung): 55.3 µM | GI50 (SN12C renal): 5.1 µM | TGI (SN12C renal): 59.5 µM | GI50 (U251 CNS): 4.42 µM | TGI (U251 CNS): 23.7 µM | GI50 (RXF 393 renal): 3.84 µM | TGI (RXF 393 renal): 39.2 µM | GI50 (SF-295 CNS): 6.95 µM | TGI (SF-295 CNS): > 100 µM | GI50 (SK-OV-3 ovarian): > 100 µM | TGI (SK-OV-3 ovarian): > 100 µM | GI50 (NCI-H23 lung): 5.27 µM | TGI (NCI-H23 lung): 29.7 µM | GI50 (UACC-257 melanoma): 13.9 µM | TGI (UACC-257 melanoma): 47.3 µM | GI50 (NCI-H522 lung): 1.8 µM | TGI (NCI-H522 lung): 5.33 µM | GI50 (OVCAR-5 ovarian): 15.1 µM | TGI (OVCAR-5 ovarian): > 100 µM | GI50 (HCC-2998 colon): 9.47 µM | TGI (HCC-2998 colon): 24.9 µM | GI50 (TK-10 renal): 18.2 µM | TGI (TK-10 renal): 97.5 µM | GI50 (MCF7 breast): 5.17 µM | TGI (MCF7 breast): > 100 µM | GI50 (MDA-MB-231 breast): 1.81 µM | TGI (MDA-MB-231 breast): 6.81 µM | GI50 (SK-MEL-5 melanoma): 5.62 µM | TGI (SK-MEL-5 melanoma): 22.3 µM | GI50 (NCI/ADR-RES ovarian): 2.01 µM | TGI (NCI/ADR-RES ovarian): 5.09 µM
